Patent publication US8906899B2, “Azetidine derivatives as sphingosine 1-phosphate (S1P) receptor modulators” (Allergan, Inc., priority 2010, dated 2014)
pEC50: −log10 of the molar value.

Target: T1, human S1P1 receptor (Homo sapiens, UniProt P21453)
T1 construct: expressed in transfected cells; membranes used
Assay: GTP γ35S binding assay for S1P1 activity
Assay type: biochemical
Details: activity potency from GTP γ35S binding; membranes, test compounds 0.08 to 5,000 nM, 30 min at 25° C.
Description: Compounds were synthesized and tested for S1P1 activity using the GTP γ^35S binding assay. These compounds may be assessed for their ability to activate or block activation of the human S1P1 receptor in cells stably expressing the S1P1 receptor.
GTP γ^35S binding was measured in the medium containing (mM) HEPES 25, pH 7.4, MgCl2 10, NaCl 100, dithitothreitol 0.5, digitonin 0.003%, 0.2 nM GTP γ^35S, and 5 μg membrane protein in a volume of 150 μl. Test compounds were included in the concentration range from 0.08 to 5,000 nM unless indicated otherwise. Membranes were incubated with 100 μM 5′-adenylylimmidodiphosphate for 30 min, and subsequently with 10 μM GDP for 10 min on ice. Drug solutions and membrane were mixed, and then reactions were initiated by adding GTP γ^35S and continued for 30 min at 25° C. Reaction mixtures were filtered over Whatman GF/B filters under vacuum, and washed three times with 3 mL of ice-cold buffer (HEPES 25, pH7.4, MgCl2 10 and NaCl-100). Filters were dried and mixed with scintillant, and counted for ^35S activity using a β-counter. Agonist-induced GTP γ^35S binding was obtained by subtracting that in the absence of agonist. Binding data were analyzed using a non-linear regression method. In case of antagonist assay, the reaction mixture contained 10 nM S1P in the presence of test antagonist at concentrations ranging from 0.08 to 5000 nM.

T1 sequence (P21453 whole entry): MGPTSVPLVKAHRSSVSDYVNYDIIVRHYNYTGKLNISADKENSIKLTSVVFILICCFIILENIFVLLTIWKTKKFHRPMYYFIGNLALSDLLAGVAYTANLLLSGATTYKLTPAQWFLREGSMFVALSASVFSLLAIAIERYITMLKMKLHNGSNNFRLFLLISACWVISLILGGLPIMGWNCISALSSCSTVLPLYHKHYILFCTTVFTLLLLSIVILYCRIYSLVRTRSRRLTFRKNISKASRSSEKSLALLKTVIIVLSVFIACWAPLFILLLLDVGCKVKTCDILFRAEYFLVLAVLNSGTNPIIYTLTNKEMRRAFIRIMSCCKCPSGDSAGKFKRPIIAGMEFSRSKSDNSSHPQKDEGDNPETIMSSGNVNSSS

SMILES	pEC50
Cc1ccc(OC(c2cccc(Cl)c2)c2nc(-c3ccc(CN4CC(C(=O)O)C4)cc3)no2)cc1C (stereo not drawn) [Compound 2, 1-(4-{5-[(3-chlorophenyl)(3,4-dimethylphenoxy)methyl]-1,2,4-oxadiazol-3-yl}benzyl)azetidine-3-carboxylic acid]	6.22
O=C(NCc1ccc2c(c1)OCO2)c1cc(-c2ccccc2)c(N2CCOCC2)s1 [N-(1,3-benzodioxol-5-ylmethyl)-5-morpholin-4-yl-4-phenylthiophene-2-carboxamide]	6.47
Cc1ccc(NC(c2cccc(Cl)c2)c2nc(-c3ccc(CN4CC(C(=O)O)C4)cc3)no2)cc1C (stereo not drawn) [Compound 6, 1-[4-(5-{(3-chlorophenyl)[(3,4-dimethylphenyl)amino]methyl}-1,2,4-oxadiazol-3-yl)benzyl]azetidine-3-carboxylic acid]	6.51
CCCc1ccc(OC(c2cccc(Cl)c2)c2nc(-c3ccc(CN4CC(C(=O)O)C4)cc3)no2)cc1 (stereo not drawn) [Compound 3, 1-(4-{5-[(3-chlorophenyl)(4-propylphenoxy)methyl]-1,2,4-oxadiazol-3-yl}benzyl)azetidine-3-carboxylic acid]	5.96
CCc1ccc(OC(c2cccc(Cl)c2)c2nc(-c3ccc(CN4CC(C(=O)O)C4)cc3)no2)cc1 (stereo not drawn) [Compound 1, 1-(4-{5-[(3-chlorophenyl)(4-ethylphenoxy)methyl]-1,2,4-oxadiazol-3-yl}benzyl)azetidine-3-carboxylic acid]	5.97
Cc1ccc(OC(c2nc(-c3ccc(CN4CC(C(=O)O)C4)cc3)no2)c2ccccc2Cl)cc1C (stereo not drawn) [Compound 4, 1-(4-{5-[(2-chlorophenyl)(3,4-dimethylphenoxy)methyl]-1,2,4-oxadiazol-3-yl}benzyl)azetidine-3-carboxylic acid]	6.04
